The source of these data is patent US9249106B2, “Substituted hydrazide compounds and use thereof” (Shenyang J & Health Pharmaceutical Co., Ltd., priority 2009, dated 2016).

Assay [1] relates to SK-N-SH (human neuroblastoma cell). Description: Antitumor activity assay in vitro (MTT). In kind it is cell-based. The settings on record: Homo sapiens, SK-N-SH cells, 72 hours, Bliss method. The protocol: (§1) (1) Five cell strains, SK-N-SH (human neuroblastoma cell), NCI-H226 (human lung cancer cell), Bel7402 (human liver cancer cell), A549 (human non-small cell lung cancer), and MCF7 (human breast cancer cell), were thawed and stably passaged for two or three times, respectively, and then digested with trypsin solution (0.25%) so as to be removed from the bottom of culture flasks. The digested cell solution was poured into a centrifuge tube, to which culture media was added to stop the digestion. The centrifuge tube was centrifuged at 1300 r/min for 3 min, the supernatant was removed gently and then 5 mL culture media was added. The cells were pipetted and mixed homogeneously. 10 μL cell suspension was taken into a cell counting plate for counting, wherein the cell concentration was adjusted to 10^4 cells/well. Each well of the 96-well plates, except for A1 well as blank control, contained 100 μL cell suspension. The 96-well plates were placed in an incubator and cultivated for 24 hours.
(§2) (2) 50 μL dimethyl sulfoxide was used to dissolve the test samples, and then a suitable amount of culture media was added so as to reach a final concentration of 2 mg/mL. Then the samples were diluted to 100, 20, 4, 0.8, 0.16 μg/mL in a 24-well plate, respectively. […] The 96-well plates were placed in an incubator and cultivated for 72 hours.
(§3) (3) The culture media containing the compounds in the 96-well plates was discarded, and the cells were washed with phosphate buffered solution (PBS) twice. Each well was added with 100 μL MTT (tetrazole) (0.5 mg/mL), and then placed in an incubator to incubate for 4 hours, after which MTT solution was discarded and 100 μL dimethyl sulfoxide was added thereto. The reaction product of survival cells with MTT, i.e. formazan, was dissolved completely by oscillation on a magnetic oscillator, then placed into a microplate reader to measure the results, and the IC50 values of compounds could be deduced by Bliss method. The control, N′-[(2-hydroxy-3-allyl)phenylmethylene]-2-(4-benzylpiperazin-1-yl)acethydrazide(PAC-1), was produced according to the method of patent WO2008/134474 A2.

In assay [2] the test system is A549 (human non-small cell lung cancer). Description: Antitumor activity assay in vitro (MTT). In kind it is cell-based. The settings on record: Homo sapiens, A549 cells, 72 hours, Bliss method. The protocol: as §1, §2, §3
Assay [3] has as its system Bel7402 (human liver cancer cell). Put plainly: Antitumor activity assay in vitro (MTT). In kind it is cell-based. The settings on record: Homo sapiens, Bel-7402, Bel7402 cells, 72 hours, Bliss method. On the procedure: as §1, §2, §3
The test system of assay [4] is MCF7 (human breast cancer cell). Description: Antitumor activity assay in vitro (MTT). In kind it is cell-based. The following applies: Homo sapiens, MCF7 cells, 72 hours, Bliss method. The protocol: as §1, §2, §3
Assay [5] has as its system NCI-H226 (human lung cancer cell). Description: Antitumor activity assay in vitro (MTT). In kind it is cell-based. The settings on record: Homo sapiens, NCI-H226 cells, 72 hours, Bliss method, read-out: IC50 NCI-226. On the procedure: as §1, §2, §3
A further assay addresses T1, Procaspase-3 (Homo sapiens, UniProt P42574).
T1 sequence (P42574 1-277): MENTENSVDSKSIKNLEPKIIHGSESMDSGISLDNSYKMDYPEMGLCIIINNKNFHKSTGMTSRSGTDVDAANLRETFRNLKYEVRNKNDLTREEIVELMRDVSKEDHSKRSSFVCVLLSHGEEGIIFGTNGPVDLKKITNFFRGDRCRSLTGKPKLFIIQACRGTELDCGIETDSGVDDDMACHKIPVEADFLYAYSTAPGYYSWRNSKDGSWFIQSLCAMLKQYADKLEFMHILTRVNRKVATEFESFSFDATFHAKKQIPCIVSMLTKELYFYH
The settings on record: both in vitro and in vivo; cited from earlier work.

For the next assay, the system named is cancer cells. The following applies: after treatment with PAC-1; cited from earlier work.

Values after ≈ are worked out from the molar mass of the structure shown.

Broadly, the IC50 is the concentration needed to halve the response being measured. As for `C=CCc1cccc(/C=N/NC(=O)CN2CCN(Cc3ccccc3)CC2)c1O` [PAC-1, N′-[(2-hydroxy-3-allyl)phenylmethylene]-2-(4-benzylpiperazin-1-yl)acethydrazide, reference compound], the IC50 in assay [1] stood at 4.3 µg/mL (≈ 11 µM); in assay [2], 1.9 µg/mL (≈ 4.84 µM); in assay [3], 3.8 µg/mL (≈ 9.68 µM); in assay [4], 2.6 µg/mL (≈ 6.62 µM); in assay [5], 1.7 µg/mL (≈ 4.33 µM). Further, the “activation of Procaspase-3” value on Procaspase-3 is on record as “activate Procaspase-3 significantly”. The “time to induction of apoptosis of cancer cells after treatment” value in the assay with cancer cells was at most 23 h.
